Results from publication PMC5806882, “Structural and biochemical characterization of the biuret hydrolase (BiuH) from the cyanuric acid catabolism pathway of Rhizobium leguminasorum bv. viciae 3841” (PLoS ONE, 2018).

Molecular target: biuret hydrolase (BiuH) (Rhizobium johnstonii, UniProt Q1M7F4, C175S)
Assay: X-ray crystal structure, […] Å
Format: binding

Chain of biuret hydrolase (BiuH) (Q1M7F4 whole entry C175S): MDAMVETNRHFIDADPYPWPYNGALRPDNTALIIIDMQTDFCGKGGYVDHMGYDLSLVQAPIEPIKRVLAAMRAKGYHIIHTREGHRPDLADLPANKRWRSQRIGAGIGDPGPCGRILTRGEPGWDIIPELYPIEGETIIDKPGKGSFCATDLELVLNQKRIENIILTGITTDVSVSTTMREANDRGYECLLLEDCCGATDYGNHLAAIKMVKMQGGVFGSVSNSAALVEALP

## NC(=O)NC(N)=O [biuret]
  X-ray crystal structure, 2.22 Å: A structure of the inactive Cys175Ser variant with biuret in the active site was obtained (PDB ID: 6AZQ).
